Measured values taken from PubChem BioAssay (NCI).
Where “and” joins values, the source holds several entries; their conditions need not be identical. Identical values can stand only once.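 Test compounds were applied to cells in 96-well plates for 48 hours at 5 doses. GI50 marks 50% less growth. TGI marks complete inhibition of growth.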

Assays:
Experiment in all cases: NCI anticancer screen, dose series, 48 h
[1] = test system: UO-31 renal
[2] = test system: OVCAR-3 ovarian
[3] = test system: CCRF-CEM leukemia
[4] = test system: HOP-92 NSCLC
[5] = test system: SNB-75 CNS
[6] = test system: HT29 colon
[7] = test system: HCT-15 colon
[8] = test system: SW-620 colon
[9] = test system: 786-0 renal
[10] = test system: LOX IMVI melanoma

SMILES	GI50 [1]	TGI [1]	GI50 [2]	TGI [2]	GI50 [3]	TGI [3]	GI50 [4]	TGI [4]	GI50 [5]	TGI [5]	GI50 [6] [µM]	TGI [6] [µM]	GI50 [7]	TGI [7]	GI50 [8]	TGI [8]	GI50 [9]	TGI [9]	GI50 [10]	TGI [10]
O=C(c1ccccc1O)c1[nH]c(Cl)c(Cl)c1-n1c(C(=O)c2ccccc2O)cc(Cl)c1Cl	2.6 µM and 2.02 µM	11.4 µM and 6.95 µM	1.03 µM and 0.704 µM	13.1 µM and 13.4 µM	0.467 µM and 0.382 µM	16.9 µM and 12.2 µM	0.224 µM and 0.155 µM	0.94 µM and 0.587 µM	1.8 µM and 1.58 µM	10.3 µM and 8.76 µM	2	12.8	0.316 µM and 0.298 µM	12.1 µM and 11.1 µM	0.869 µM and 0.716 µM	13.2 µM and 12.7 µM	2.11 µM and 1.73 µM	11.2 µM and 7.99 µM	2.72 µM and 2.48 µM	10.6 µM and 10.7 µM
Cc1cc(O)cc(C)c1/C=C/c1cncc(C(=O)OC(C)(C)C)c1	8.34 µM	> 25 µM	17 µM	> 25 µM	3.13 µM	> 25 µM	4.01 µM	18.8 µM	4.75 µM	> 23.9 µM	> 16.8	> 25	11.5 µM	> 25 µM	20.2 µM	> 25 µM	19.1 µM	> 25 µM	16 µM	> 25 µM
COc1cc2c(cc1O)C(c1cc(O)c(O)c(OC)c1)C(O)(C(=O)O)C(CO)C2O (configuration not stated)		> 100 µM		> 100 µM		22.7 µM		> 100 µM		> 100 µM		> 100		> 100 µM		76.5 µM		30.5 µM		33.3 µM
Nc1cc2nc3ccccc3oc-2cc1=O	1.77 µM	10.4 µM	3.54 µM	29.3 µM	13.4 µM	> 64.9 µM	> 45 µM	> 100 µM	1.82 µM	4.63 µM	2.58	> 21.7	0.641 µM		1.91 µM	5.08 µM	20.7 µM	> 83.4 µM	0.606 µM	2.23 µM
CC1(C)N=C(N)N=C(N)N1c1ccc(Cl)c(Cl)c1	13.5 µM	> 100 µM	5.27 µM	> 100 µM	3.39 µM	> 52.3 µM	47.1 µM	> 100 µM	18.7 µM	> 81.3 µM	0.1	> 100	1.37 µM	> 100 µM	0.0966 µM	> 100 µM	0.072 µM	> 100 µM	0.0879 µM	> 100 µM
Oc1c2c(c(O)c3ccccc13)C1(N=N2)c2ccccc2Oc2ccccc21		23.3 µM		10.8 µM		29.9 µM		31 µM		33.5 µM		30.2		9.15 µM		18.1 µM		11.5 µM		7.31 µM
NCCN1C(=O)c2ccccc2C1(O)c1ccc(Cl)cc1 (configuration not stated)				> 100 µM		57 µM		34.4 µM		97.6 µM		39.8		> 100 µM		36.6 µM		30.9 µM		32.8 µM
FC(F)(F)c1[nH]ncc1-c1nc2ccc3[nH]ncc3c2c2c1CCCC2	1.3 µM	5 µM	2.66 µM	6.86 µM	2.15 µM	10.7 µM	1.21 µM	3.5 µM	1.1 µM	2.52 µM	2.11	6.76	2.28 µM	10.1 µM	1.75 µM	11 µM	1.55 µM	4.08 µM	1.09 µM	2.6 µM
CCN(CC)c1ccc(/C=C/C=C(/C#N)C(N)=S)cc1	4.39 µM	> 100 µM	10.9 µM	> 100 µM	3.16 µM	71.8 µM	10.8 µM	71.3 µM	20.4 µM	> 100 µM	2.84	23.9	2.59 µM	> 100 µM	15.4 µM	> 100 µM	2.76 µM	8.69 µM	4.71 µM	28.3 µM
CC(=O)/C(=C\c1c(-c2ccccc2)[nH]c2ccccc12)S(=O)(=O)c1ccccc1	1.58 µM	3.54 µM	1.54 µM	4.52 µM	1.4 µM	4.78 µM	3.66 µM	15.4 µM	1.59 µM	14.6 µM	0.576	2.32	0.834 µM	3.21 µM	0.73 µM	7.14 µM	1.62 µM	3.44 µM	1.39 µM	3.27 µM
O=c1cc(O)c2c(O)cc(O)cc2o1				> 100 µM		> 100 µM		> 100 µM		> 100 µM		> 100		> 100 µM		> 100 µM		> 100 µM		> 100 µM
CCCC#CCOC(=O)c1cc([N+](=O)[O-])cc([N+](=O)[O-])c1		> 100 µM		> 100 µM		> 100 µM		> 100 µM		> 100 µM		> 100		> 100 µM		> 100 µM		> 100 µM		> 100 µM
CNC(=O)c1cc2c(Oc3ccc(NC(=S)NC(=O)Cc4ccccc4)cc3F)ccnc2cc1OC	2.56 µM	> 100 µM	> 28.6 µM	> 100 µM	> 29.9 µM	> 100 µM	1.67 µM	> 100 µM	0.183 µM	4.68 µM	3.16	> 100	4.7 µM	> 100 µM	> 100 µM	> 100 µM	5.75 µM	> 100 µM	4.13 µM	> 100 µM
Cc1ccc2c(CC(=O)O)cc(=O)oc2c1				> 100 µM		> 100 µM		> 100 µM		> 100 µM		> 100		> 100 µM		> 100 µM		> 100 µM		> 100 µM
O=C(Nc1cccc(-n2cc(-c3ccncc3)c(-c3ccc(O)c(Cl)c3)n2)c1)c1ccc(Cl)c(Cl)c1	4.5 µM	> 100 µM			4.08 µM	> 100 µM	2.33 µM	28.4 µM	0.977 µM	18.4 µM	26	> 100	3.2 µM	> 100 µM	3.89 µM	> 100 µM	5.49 µM	94.3 µM	7.21 µM	> 100 µM
CN(C)CCNc1nc2ccccc2c2occc12	26.1 µM	> 100 µM	97.2 µM	> 100 µM	20.9 µM	> 100 µM	54.1 µM	> 100 µM	11.8 µM	> 100 µM			30.1 µM	> 100 µM	63.4 µM	> 100 µM	62 µM	> 100 µM	19.1 µM	42.8 µM
COc1ccc(/C(=N/O)c2cc(OC)c(OC)c(OC)c2)c(OC)c1N	5.45 µM	> 100 µM			4.09 µM	> 100 µM	> 100 µM	> 100 µM	2.21 µM	> 100 µM	3.54	> 100	3.87 µM	> 100 µM	4.42 µM	> 100 µM	12.7 µM	> 100 µM	7.28 µM	> 100 µM
C[C@]12CC[C@@H]3c4ccc(O)cc4CC[C@H]3[C@@H]1CC[C@@H]2NS(=O)(=O)c1ccc2ccccc2c1	1.83 µM	5.57 µM	2.63 µM	7.3 µM	2.94 µM	> 100 µM	1.83 µM	7.14 µM	2.1 µM	12.6 µM	2.47	6.11	2.89 µM	10.5 µM	3.4 µM	15.7 µM	2.96 µM	8.9 µM		
CSc1nc(N)c2c(n1)NC(c1ccccc1)C1CCc3ccccc3C1=N2 (configuration not stated)	0.737 µM	9.72 µM	6.85 µM	> 100 µM	3.33 µM	> 100 µM	3.08 µM	> 100 µM	> 100 µM	> 100 µM	7.63	> 100	7.61 µM	> 100 µM			> 100 µM	> 100 µM	7.16 µM	> 100 µM
COC(=O)C(=O)C(CC(=O)Nc1cccc(C(F)(F)F)c1)C(=O)OC (configuration not stated)		> 100 µM				> 100 µM		> 100 µM		> 100 µM				> 100 µM		> 100 µM		> 100 µM		> 100 µM
N=C(N)SCc1ccc([N+](=O)[O-])cc1[N+](=O)[O-]	3.21 µM	14.3 µM	4.54 µM	15.2 µM	3.77 µM	> 100 µM	2.4 µM	9.91 µM	19.6 µM	50.5 µM	5.44	18.9	5.01 µM	19.4 µM			11.8 µM	27.8 µM	8.66 µM	25 µM
Cc1ccc(C)c2c(N=Nc3ccccc3[N+](=O)[O-])c(O)[nH]c12		> 100 µM		> 100 µM		> 100 µM		> 100 µM		> 100 µM				> 100 µM		> 100 µM		> 100 µM		> 100 µM
O=C(COc1ccc(-c2nc3cc(Cl)c(Cl)cc3[nH]2)cc1)N=Nc1c(O)[nH]c2ccccc12	> 100 µM	> 100 µM	2.7 µM	> 100 µM	0.749 µM	> 100 µM	1.59 µM	5.22 µM	1.61 µM	3.68 µM	1.14	> 100	> 100 µM	> 100 µM			2.33 µM	8.5 µM	1.02 µM	2.64 µM
N#C/C(=C\c1cccc2cnccc12)N1N=NC2C=CC=CC21 (configuration not stated)	0.602 µM	> 100 µM	1.91 µM	4.88 µM			0.532 µM	5.13 µM	0.184 µM	3.61 µM	3.5	> 100	1.74 µM	> 100 µM	3.35 µM	> 100 µM	3.33 µM	> 100 µM	3.01 µM	> 100 µM
CC(=O)c1cccc(NC(=O)c2ccc(NC3=C(Cl)C(=O)N(Cc4ccccc4)C3=O)cc2)c1	1.52 µM	3.12 µM	9.57 µM	22.7 µM			6.45 µM	22.8 µM	30.1 µM	> 100 µM	27.3	> 100	16.8 µM	44.5 µM	5.87 µM	> 100 µM	16.5 µM	36.4 µM	13.9 µM	33.8 µM
COc1ccc(C(=O)OC2C(OC3C(O)COC(O[C@H]4C[C@H]5[C@@H]6CC=C7C[C@@H](O)CC[C@]7(C)[C@H]6CC[C@]5(C)[C@H]4[C@H](C)C(=O)CCC(C)C)C3OC(C)=O)OCC(O)C2O)cc1 (some centres not stated)	< 0.003 µM	0.0056 µM	0.0533 µM	6.88 µM			0.00636 µM	1.43 µM	< 0.003 µM	4.36 µM	< 0.003	5.91	0.023 µM	0.628 µM	< 0.003 µM	0.304 µM	< 0.003 µM	0.441 µM	< 0.003 µM	0.00483 µM
COC(=O)[C@@H](OC)[C@@H]1Cc2cc3cc(OC4CC(OC5CC(O)C(O)C(C)O5)C(O)C(C)O4)c(C)c(O)c3c(O)c2C(=O)[C@H]1OC1CC(OC2CC(OC3CC(C)(O)C(O)C(C)O3)C(O)C(C)O2)C(O)C(C)O1 (some centres not stated)	0.0335 µM	0.12 µM			0.035 µM	> 7.4 µM	0.0365 µM	0.119 µM	0.0212 µM	0.0487 µM	0.039		0.0575 µM	> 16.5 µM	0.04 µM	> 16.5 µM	0.0302 µM	> 16.5 µM	0.026 µM	> 5.38 µM
C#C/C=C/CC1OC(C(Br)CC)CC(Br)C2CC1O2 (configuration not stated)				> 100 µM		> 100 µM		58.6 µM		> 100 µM		> 100		> 100 µM		> 100 µM		24.8 µM		3.39 µM
CCCCN1CCN(c2ccc3nc(-c4ccc5nc(-c6ccc(OCC)c(OCC)c6)[nH]c5c4)[nH]c3c2)CC1	2 µM	5.8 µM	0.358 µM	0.85 µM	0.538 µM	3.06 µM	1.23 µM	3.17 µM	0.65 µM	2.01 µM	0.802	2.97	1.56 µM	3.32 µM	0.474 µM	1.79 µM	1.41 µM	2.84 µM		
